Data published in patent EP4813991A1 (iLeadBMS Co., Ltd., priority 2023, dated 2025).
Read-outs that look alike come from different tables or passages of the source.

Experiments:
CDK12 [1] = molecular target: T1, CDK12 (Homo sapiens, UniProt Q9NYV4); assay: CDK12 kinase inhibitory activity assay (33P-ATP filter binding); type: biochemical; settings: kinase reaction 120 minutes, 33P-gamma-ATP; read-out: CDK12 IC50
Procedure: (§1) Before initiating the CDK12 and CDK13 kinase reactions, each Example compound was dissolved and diluted in DMSO as a solvent across 9 concentration ranges at room temperature. The diluted solutions were then incubated with a mixture of kinase and substrate (and cofactors, if required) for 20 minutes. Next, radioisotope-labeled ATP (^33P-gamma-ATP) was added to proceed with the kinase reaction at room temperature for 120 minutes. After the reaction was completed, the reaction mixture was transferred to a filter paper that binds the radioisotope-labeled catalytic product (^33P-substrate). Unreacted ^33P-ATP was removed by washing with 0.75 % phosphoric acid, and then the radioactive phosphorylated substrate remaining on the filter paper was measured. Kinase activity data were expressed as a percentage of the kinase activity remaining in the test sample compared to a DMSO control group. The half-maximal inhibitory concentration (IC50) for each kinase was calculated using Prism (Graphpad) software.

CDK12 [2] = molecular target: T1, CDK12; assay: Cellular CDK12 inhibitory activity assay (Ser2 phosphorylation of RNA polymerase II subunit B1 CTD in MDA-MB-231 cells); type: cell-based; parameters: using MDA-MB-231 breast cancer cells; endogenous in cells; host or cells: MDA-MB-231; settings: MDA-MB-231 cells, 6 hours treatment; read-out: pRpbl CTD S2 IC50
Procedure: MDA-MB-231 cells were dispensed into a 96-well plate at 100 µL of cell suspension per well using L-15 (Invitrogen) medium containing 10 % FBS, followed by overnight incubation in a cell incubator at 37 °C and 0 % CO2. The next day, each Example compound dissolved in DMSO across 9 concentration ranges and a DMSO control group were treated on the MDA-MB-231 cells at 37 °C and 0 % CO2 for 6 hours. After the compound treatment, the medium in the 96-well plate was removed, and 60 µL of a fixing solution (4.0 % paraformaldehyde in PBS) was added to each well, followed by standing for 20 minutes. After removing the fixing solution and washing with PBS, 60 µL of PBS containing 0.1 % Triton X-100 was dispensed into each well, followed by shaking at room temperature for 15 minutes. After washing with PBS, 100 µL of blocking buffer was added, followed by shaking at room temperature for 1 hour. After removing the blocking buffer, primary antibodies, which are RNA polymerase II subunit B1 phospho-Ser2 (1:500, Cell signaling technology) and RNA polymerase II subunit B1 carboxy-terminal domain (1:200, Cell signaling technology), were added at 60 µL per well and reacted overnight at 4 °C. After adding 150 µL of PBS containing 0.1 % Triton X-100 and washing at least twice by shaking at room temperature for 5 minutes, 60 µL of a secondary antibody was added, followed by shaking at room temperature for 1 hour while blocking light. After adding 150 µL of PBS containing 0.1 % Triton X-100 and washing at least twice by shaking at room temperature for 5 minutes, 150 µL of PBS was added again, followed by washing at least twice by shaking at room temperature for 5 minutes. The plate was scanned using a Li-COR Odyssey machine with the wells filled with PBS. IC50 values were calculated by fitting a dose-response curve using a 4-parameter model of Prism (Graphpad) software.

[3] = test system: MDA-MB-231 breast cancer cells; assay: Proliferation inhibitory activity assay against MDA-MB-231 breast cancer cells; type: cell-based; settings: Homo sapiens, 72 hours, CellTiter Glo, relative IC50
Procedure: Experiments were performed using the MDA-MB-231 breast cancer cell line to measure the cell proliferation inhibitory ability of each Example compound. MDA-MB-231 cells were dispensed into a 96-well plate at 100 µL of cell suspension per well using L-15 (Invitrogen) medium containing 10 % FBS, followed by incubation in a cell incubator at 37 °C and 0 % CO2. The next day, each Example compound dissolved and diluted in DMSO across 9 concentration ranges and a DMSO control group were treated on the cells for 72 hours. After the compound treatment was completed, 100 µL of CellTiter Glo (Promega) reagent was added to each well of the 96-well plate, followed by shaking for 10 minutes and standing at room temperature for 10 minutes. Luminescence signals were measured after inserting the 96-well plate into an Envision plate reader (PerkinElmer). Relative IC50 values were calculated by fitting a dose-response curve using XLfit (IDBS Ltd) software.
The breast cancer cell proliferation inhibitory activities of the Example compounds measured by the above method were evaluated according to the following criteria, and the results are presented in Table 13.

CDK13 = CDK13 (Homo sapiens, UniProt Q14004); assay: CDK13 kinase inhibitory activity assay (33P-ATP filter binding); type: biochemical
Procedure: as §1

[4] = kinase reaction 120 minutes, 33P-gamma-ATP, read-out: CDK13 IC50

Sequence of CDK13 (Q14004 whole entry, species assumed): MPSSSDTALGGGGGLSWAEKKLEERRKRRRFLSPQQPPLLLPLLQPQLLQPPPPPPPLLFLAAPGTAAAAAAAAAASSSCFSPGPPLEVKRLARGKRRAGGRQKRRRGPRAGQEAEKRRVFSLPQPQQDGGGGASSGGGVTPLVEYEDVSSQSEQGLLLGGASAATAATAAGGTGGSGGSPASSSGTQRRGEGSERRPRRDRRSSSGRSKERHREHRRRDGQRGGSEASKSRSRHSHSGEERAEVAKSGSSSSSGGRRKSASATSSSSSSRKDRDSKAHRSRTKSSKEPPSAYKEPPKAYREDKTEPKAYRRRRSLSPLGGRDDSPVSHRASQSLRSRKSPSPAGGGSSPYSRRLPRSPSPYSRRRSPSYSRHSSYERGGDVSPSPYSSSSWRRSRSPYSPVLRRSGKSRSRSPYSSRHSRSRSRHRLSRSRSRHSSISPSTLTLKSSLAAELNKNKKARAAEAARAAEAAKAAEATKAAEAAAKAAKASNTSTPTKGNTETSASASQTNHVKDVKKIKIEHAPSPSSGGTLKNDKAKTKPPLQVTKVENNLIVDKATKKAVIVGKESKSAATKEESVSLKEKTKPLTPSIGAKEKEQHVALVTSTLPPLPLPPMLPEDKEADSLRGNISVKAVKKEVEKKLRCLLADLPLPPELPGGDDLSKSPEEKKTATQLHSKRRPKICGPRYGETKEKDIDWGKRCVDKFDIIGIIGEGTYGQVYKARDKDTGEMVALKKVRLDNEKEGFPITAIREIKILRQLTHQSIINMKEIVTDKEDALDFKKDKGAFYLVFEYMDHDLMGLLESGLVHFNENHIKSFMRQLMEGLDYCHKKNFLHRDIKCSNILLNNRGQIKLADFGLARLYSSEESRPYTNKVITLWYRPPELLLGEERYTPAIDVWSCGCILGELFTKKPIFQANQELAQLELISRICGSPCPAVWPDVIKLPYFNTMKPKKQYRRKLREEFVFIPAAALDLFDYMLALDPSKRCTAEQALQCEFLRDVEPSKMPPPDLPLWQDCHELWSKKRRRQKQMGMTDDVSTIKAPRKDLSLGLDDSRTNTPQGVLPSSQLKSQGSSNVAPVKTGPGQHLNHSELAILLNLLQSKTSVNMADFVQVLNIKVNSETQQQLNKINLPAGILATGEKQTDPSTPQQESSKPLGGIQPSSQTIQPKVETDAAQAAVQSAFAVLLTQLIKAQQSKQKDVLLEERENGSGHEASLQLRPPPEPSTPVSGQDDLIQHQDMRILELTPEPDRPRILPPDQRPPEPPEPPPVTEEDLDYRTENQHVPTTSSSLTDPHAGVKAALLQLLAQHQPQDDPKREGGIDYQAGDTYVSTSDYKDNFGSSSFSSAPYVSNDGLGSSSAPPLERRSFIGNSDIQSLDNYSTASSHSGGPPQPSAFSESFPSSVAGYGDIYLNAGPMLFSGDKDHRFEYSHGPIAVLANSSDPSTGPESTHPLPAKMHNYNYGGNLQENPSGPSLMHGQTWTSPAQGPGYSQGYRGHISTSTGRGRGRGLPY
Sequence of CDK13 (O75909 whole entry partner, species assumed): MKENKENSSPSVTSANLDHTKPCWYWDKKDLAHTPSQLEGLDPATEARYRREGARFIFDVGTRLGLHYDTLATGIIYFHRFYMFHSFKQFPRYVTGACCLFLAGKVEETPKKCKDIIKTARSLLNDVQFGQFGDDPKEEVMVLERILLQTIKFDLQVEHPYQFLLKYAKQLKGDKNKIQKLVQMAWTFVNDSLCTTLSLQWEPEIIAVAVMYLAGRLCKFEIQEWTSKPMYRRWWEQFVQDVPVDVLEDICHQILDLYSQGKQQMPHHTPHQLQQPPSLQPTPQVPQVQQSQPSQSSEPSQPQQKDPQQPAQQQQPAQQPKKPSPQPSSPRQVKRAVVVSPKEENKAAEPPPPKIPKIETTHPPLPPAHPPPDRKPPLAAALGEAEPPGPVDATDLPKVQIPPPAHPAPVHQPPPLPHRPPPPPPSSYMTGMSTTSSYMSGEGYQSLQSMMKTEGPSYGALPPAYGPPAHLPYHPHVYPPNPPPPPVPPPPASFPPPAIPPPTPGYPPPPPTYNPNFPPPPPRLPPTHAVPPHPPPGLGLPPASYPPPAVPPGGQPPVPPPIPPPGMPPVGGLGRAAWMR
T1 sequence (Q9NYV4 whole entry, species assumed): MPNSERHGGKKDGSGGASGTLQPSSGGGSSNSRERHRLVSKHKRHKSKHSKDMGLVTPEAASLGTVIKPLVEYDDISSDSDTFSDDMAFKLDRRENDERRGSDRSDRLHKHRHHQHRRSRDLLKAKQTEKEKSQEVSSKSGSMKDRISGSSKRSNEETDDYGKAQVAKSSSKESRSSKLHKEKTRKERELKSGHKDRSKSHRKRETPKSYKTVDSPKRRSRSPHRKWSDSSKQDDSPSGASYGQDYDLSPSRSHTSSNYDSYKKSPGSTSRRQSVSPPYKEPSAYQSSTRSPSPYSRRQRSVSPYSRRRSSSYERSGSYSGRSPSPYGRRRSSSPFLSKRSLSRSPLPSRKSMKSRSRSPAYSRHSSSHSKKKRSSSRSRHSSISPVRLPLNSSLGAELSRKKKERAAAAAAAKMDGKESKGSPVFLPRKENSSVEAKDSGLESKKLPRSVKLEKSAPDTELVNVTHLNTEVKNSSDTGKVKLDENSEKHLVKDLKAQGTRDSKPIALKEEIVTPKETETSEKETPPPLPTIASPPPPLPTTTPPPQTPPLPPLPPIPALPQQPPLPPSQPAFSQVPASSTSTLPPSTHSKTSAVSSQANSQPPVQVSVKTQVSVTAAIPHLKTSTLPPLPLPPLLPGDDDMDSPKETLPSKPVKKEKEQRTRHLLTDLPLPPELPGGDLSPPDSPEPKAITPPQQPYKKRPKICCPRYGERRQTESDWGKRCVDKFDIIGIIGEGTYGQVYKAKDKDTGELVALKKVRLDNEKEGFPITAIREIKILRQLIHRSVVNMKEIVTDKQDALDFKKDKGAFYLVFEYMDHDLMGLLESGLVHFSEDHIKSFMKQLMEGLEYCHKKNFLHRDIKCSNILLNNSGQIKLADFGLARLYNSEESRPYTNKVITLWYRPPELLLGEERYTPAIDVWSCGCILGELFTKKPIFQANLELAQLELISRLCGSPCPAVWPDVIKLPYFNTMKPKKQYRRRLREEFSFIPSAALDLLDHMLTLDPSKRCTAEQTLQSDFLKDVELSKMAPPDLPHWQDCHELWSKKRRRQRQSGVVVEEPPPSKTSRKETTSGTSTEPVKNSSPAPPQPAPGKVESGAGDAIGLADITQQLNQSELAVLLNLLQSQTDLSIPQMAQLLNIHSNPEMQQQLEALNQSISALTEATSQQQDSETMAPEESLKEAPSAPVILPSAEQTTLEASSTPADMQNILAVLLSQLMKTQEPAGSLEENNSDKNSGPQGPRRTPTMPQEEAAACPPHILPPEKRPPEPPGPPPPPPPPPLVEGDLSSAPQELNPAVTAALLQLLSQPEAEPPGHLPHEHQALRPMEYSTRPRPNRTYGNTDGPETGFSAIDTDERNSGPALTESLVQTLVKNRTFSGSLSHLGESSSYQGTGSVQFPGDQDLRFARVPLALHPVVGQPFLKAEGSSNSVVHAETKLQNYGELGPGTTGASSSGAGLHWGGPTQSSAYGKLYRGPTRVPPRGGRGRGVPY
T1 sequence (O75909 whole entry partner, species assumed): as the sequence (O75909 whole entry partner, species assumed) above

| Compound | IC50 (CDK12 [1]) | IC50 (CDK12 [2]) | IC50 [3] | IC50 (CDK13) | IC50 (CDK13; [4]) |
| --- | --- | --- | --- | --- | --- |
| OCC1CN(c2cc(NCc3nc4cc(Cl)c(Cl)cc4[nH]3)c3ncc(C(F)(F)F)n3n2)C1 [Example 60, (1-(8-(((5,6-dichloro-1H-benzo[d]imidazol-2-yl)methyl)amino)-3-(trifluoromethyl)imidazo[1,2-b]pyridazin-6-yl)azetidin-3-yl)methanol] | 0.1 to 0.5 µM | 0.3 to 3 µM | 0.05 to 0.5 µM | < 0.1 µM |  |
| N#CC1(O)CCN(c2cc(NCc3nc4cc(Cl)c(Cl)cc4[nH]3)c3ncc(C(F)(F)F)n3n2)C1 (stereo not drawn) [Example 61, 1-(8-(((5,6-dichloro-1H-benzo[d]imidazol-2-yl)methyl)amino)-3-(trifluoromethyl)imidazo[1,2-b]pyridazin-6-yl)-3-hydroxypyrrolidine-3-carbonitrile] | 0.1 to 0.5 µM | < 0.3 µM | ≤ 0.05 µM |  | 0.1 to 0.5 µM |
| O[C@@H]1CCN(c2cc(NCc3nc4cc(Cl)c(Cl)cc4[nH]3)c3ncc(C(F)(F)F)n3n2)C1 [Example 62, (R)-1-(8-(((5,6-dichloro-1H-benzo[d]imidazol-2-yl)methyl)amino)-3-(trifluoromethyl)imidazo[1,2-b]pyridazin-6-yl)pyrrolidin-3-ol] | 0.1 to 0.5 µM | < 0.3 µM | 0.05 to 0.5 µM | 0.1 to 0.5 µM |  |
| O[C@H]1CCN(c2cc(NCc3nc4cc(Cl)c(Cl)cc4[nH]3)c3ncc(C(F)(F)F)n3n2)C1 [Example 63, (S)-1-(8-(((5,6-dichloro-1H-benzo[d]imidazol-2-yl)methyl)amino)-3-(trifluoromethyl)imidazo[1,2-b]pyridazin-6-yl)pyrrolidin-3-ol] | 0.1 to 0.5 µM | < 0.3 µM | 0.05 to 0.5 µM | < 0.1 µM |  |
| O=C(O)C1CN(c2cc(NCc3nc4cc(Cl)c(Cl)cc4[nH]3)c3ncc(C(F)(F)F)n3n2)C1 [Example 64, 1-(8-(((5,6-dichloro-1H-benzo[d]imidazol-2-yl)methyl)amino)-3-(trifluoromethyl)imidazo[1,2-b]pyridazin-6-yl)azetidine-3-carboxylic acid] | 0.1 to 0.5 µM | > 3 µM | > 0.5 µM |  | < 0.1 µM |
| NC(=O)C1CN(c2cc(NCc3nc4cc(Cl)c(Cl)cc4[nH]3)c3ncc(C(F)(F)F)n3n2)C1 [Example 65, 1-(8-(((5,6-dichloro-1H-benzo[d]imidazol-2-yl)methyl)amino)-3-(trifluoromethyl)imidazo[1,2-b]pyridazin-6-yl)azetidine-3-carboxamide] | < 0.1 µM | < 0.3 µM | 0.05 to 0.5 µM |  | < 0.1 µM |
| NC(=O)N1CCN(c2cc(NCc3nc4cc(Cl)c(Cl)cc4[nH]3)c3ncc(C(F)(F)F)n3n2)CC1 [Example 66, 4-(8-(((5,6-dichloro-1H-benzo[d]imidazol-2-yl)methyl)amino)-3-(trifluoromethyl)imidazo[1,2-b]pyridazin-6-yl)piperazine-1-carboxamide] | < 0.1 µM | < 0.3 µM | 0.05 to 0.5 µM | < 0.1 µM |  |
| NC(=O)C1CCN(c2cc(NCc3nc4cc(Cl)c(Cl)cc4[nH]3)c3ncc(C(F)(F)F)n3n2)CC1 [Example 67, 1-(8-(((5,6-dichloro-1H-benzo[d]imidazol-2-yl)methyl)amino)-3-(trifluoromethyl)imidazo[1,2-b]pyridazin-6-yl)piperidine-4-carboxamide] | < 0.1 µM | < 0.3 µM | 0.05 to 0.5 µM |  | < 0.1 µM |
| Fc1cc2nc(CNc3cc(N4CCOCC4)nn4c(C(F)(F)F)cnc34)[nH]c2cc1F [Example 70, N-((5,6-difluoro-1H-benzo[d]imidazol-2-yl)methyl)-6-morpholino-3-(trifluoromethyl)imidazo[1,2-b]pyridazin-8-amine] | < 0.1 µM | < 0.3 µM | ≤ 0.05 µM |  | < 0.1 µM |
| FC(F)(F)c1cnc2c(NCc3nc4ccncc4[nH]3)cc(N3CCOCC3)nn12 [Example 74, N-((3H-imidazo[4,5-c]pyridin-2-yl)methyl)-6-morpholino-3-(trifluoromethyl)imidazo[1,2-b]pyridazin-8-amine] | < 0.1 µM | 0.3 to 3 µM | 0.05 to 0.5 µM |  | < 0.1 µM |
| FC(F)(F)c1ccc2[nH]c(CNc3cc(N4CCOCC4)nn4c(C(F)(F)F)cnc34)nc2c1 [Example 78, 6-morpholino-3-(trifluoromethyl)-N-((5-(trifluoromethyl)-1H-benzo[d]imidazol-2-yl)methyl)imidazo[1,2-b]pyridazin-8-amine] | < 0.1 µM | 0.3 to 3 µM | 0.05 to 0.5 µM |  | < 0.1 µM |
| Cc1cc2[nH]c(CNc3cc(N4CCOCC4)nn4c(C(F)(F)F)cnc34)nc2cc1Cl [Example 79, N-((5-chloro-6-methyl-1H-benzo[d]imidazol-2-yl)methyl)-6-morpholino-3-(trifluoromethyl)imidazo[1,2-b]pyridazin-8-amine] | < 0.1 µM | < 0.3 µM | ≤ 0.05 µM |  | < 0.1 µM |
| Cc1cc2[nH]c(CNc3cc(N4CCOCC4)nn4c(C(F)(F)F)cnc34)nc2cc1C(F)(F)F [Example 80, N-((6-methyl-5-(trifluoromethyl)-1H-benzo[d]imidazol-2-yl)methyl)-6-morpholino-3-(trifluoromethyl)imidazo[1,2-b]pyridazin-8-amine] | < 0.1 µM | < 0.3 µM | ≤ 0.05 µM |  | < 0.1 µM |
| FC(F)(F)c1cc2nc(CNc3cc(N4CCOCC4)nn4c(C(F)(F)F)cnc34)[nH]c2cc1C(F)(F)F [Example 81, N-((5,6-bis(trifluoromethyl)-1H-benzo[d]imidazol-2-yl)methyl)-6-morpholino-3-(trifluoromethyl)imidazo[1,2-b]pyridazin-8-amine] | > 0.5 µM | 0.3 to 3 µM | 0.05 to 0.5 µM |  | 0.1 to 0.5 µM |
| FC(F)(F)c1cnc2c(NCc3cn4ccccc4n3)cc(N3CCOCC3)nn12 [Example 82, N-(imidazo[1,2-a]pyridin-2-ylmethyl)-6-morpholino-3-(trifluoromethyl)imidazo[1,2-b]pyridazin-8-amine] | < 0.1 µM | 0.3 to 3 µM | 0.05 to 0.5 µM | < 0.1 µM |  |
| FC(F)(F)c1cnc2c(NCc3cn4cccnc4n3)cc(N3CCOCC3)nn12 [Example 83, N-(imidazo[1,2-a]pyrimidin-2-ylmethyl)-6-morpholino-3-(trifluoromethyl)imidazo[1,2-b]pyridazin-8-amine] | < 0.1 µM | 0.3 to 3 µM | 0.05 to 0.5 µM | < 0.1 µM |  |
| FC(F)(F)c1cnc2c(NCc3cc4cccnc4[nH]3)cc(N3CCOCC3)nn12 [Example 84, N-((1H-pyrrolo[2,3-b]pyridin-2-yl)methyl)-6-morpholino-3-(trifluoromethyl)imidazo[1,2-b]pyridazin-8-amine] | < 0.1 µM | 0.3 to 3 µM | 0.05 to 0.5 µM | < 0.1 µM |  |
| FC(F)(F)c1cnc2c(NCc3cn4ncccc4n3)cc(N3CCOCC3)nn12 [Example 85, N-(imidazo[1,2-b]pyridazin-2-ylmethyl)-6-morpholino-3-(trifluoromethyl)imidazo[1,2-b]pyridazin-8-amine] | < 0.1 µM | > 3 µM | > 0.5 µM | < 0.1 µM |  |
